Test results as given in patent publication US4256757A, “1-Substituted imidazoles for inhibition of thromboxane synthetase” (Ono Pharmaceutical Co., Ltd., priority 1978, dated 1981).
In brackets after ≈: the same amount, converted by molar mass. Where a name gives a salt, the structure may show the parent alone.

Assays:
thromboxane synthetase [1] = assay: inhibitory action for thromboxane synthetase (prior art); assay type: biochemical; conditions: prior-art compound, comparison in words
Excerpt: However, since their inhibitory action for thromboxane synthetase is weak, these compounds are hardly applicable as practically effective medicines.
On the other hand, N-(6-methoxycarbonylhexyl)imidazole has already been synthesized by P. Matthias et al, and publicly known [Monatsch Chem., 108(5), 1059(1977)].

acute toxicity test = conditions: mouse, in vivo; ICR-stain male mice (7 weeks old), intravenous administration
[2] = test system: arachidonic acid-induced blood platelet aggregation in platelet-rich plasma of rats; assay: inhibition of arachidonic acid-induced blood platelet aggregation in platelet-rich plasma; assay type: cell-based; conditions: Rattus norvegicus, read-out: concentration producing a 50% inhibition of arachidonic acid-induced blood platelet aggregation, in comparison with controls
[3] = test system: arachidonic acid-induced sudden deaths of rabbits; assay: inhibitory effect on arachidonic acid-induced sudden deaths; assay type: in vivo; conditions: oral administration, 100 mg/kg animal body weight
[4] = target: T1, thromboxane synthetase from rabbit platelet microsomes (Oryctolagus cuniculus, UniProt G1TAZ9); assay: inhibition of thromboxane synthetase (conversion of prostaglandin H2 into thromboxane B2); assay type: biochemical
T1 construct: thromboxane synthetase from rabbit platelet microsomes; from tissue; host or cells: rabbit platelet microsomes
T1 sequence (G1TAZ9 1-530): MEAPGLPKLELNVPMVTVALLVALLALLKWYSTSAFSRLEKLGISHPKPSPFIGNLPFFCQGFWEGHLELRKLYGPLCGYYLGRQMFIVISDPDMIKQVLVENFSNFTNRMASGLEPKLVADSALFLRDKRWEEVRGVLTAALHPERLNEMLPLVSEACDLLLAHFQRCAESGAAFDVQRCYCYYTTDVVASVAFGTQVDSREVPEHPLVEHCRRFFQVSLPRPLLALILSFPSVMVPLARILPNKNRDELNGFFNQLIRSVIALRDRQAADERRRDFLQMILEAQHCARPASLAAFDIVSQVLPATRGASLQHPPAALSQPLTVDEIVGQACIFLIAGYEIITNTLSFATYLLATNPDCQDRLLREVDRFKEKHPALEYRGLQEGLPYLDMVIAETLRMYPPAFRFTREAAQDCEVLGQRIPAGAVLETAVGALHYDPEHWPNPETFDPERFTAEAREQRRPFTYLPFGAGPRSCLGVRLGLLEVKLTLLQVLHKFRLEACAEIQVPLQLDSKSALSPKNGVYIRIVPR

thromboxane synthetase [5] = conditions: reported in Prostaglandins, 13(4), 611(1977); cited from earlier work

SMILES | IC50 [2] [mg/L] | IC50 [4] [µM] | also measured
COC(=O)CCCCCCn1ccnc1 [N-(6-methoxycarbonylhexyl)imidazole] |  |  | inhibitory effect on thromboxane synthetase compared with imidazole or 1-methylimidazole (thromboxane synthetase [1]): stronger inhibitory effect
CC(C)(CCCCCCn1ccnc1)C(=O)O.Cl [1-(7-carboxy-7-methyloctyl)imidazole hydrochloride] | 0.091 |  | LD50 (acute toxicity test): 330 mg/kg; inhibitory effect on arachidonic acid-induced sudden deaths [3]: inhibitory effect
Cl.O=C(O)CCCCC#CCn1ccnc1 [1-(7-carboxy-2-heptynyl)imidazole hydrochloride] | 0.21 |  | inhibitory effect on arachidonic acid-induced sudden deaths [3]: inhibitory effect
Cl.O=C(O)C#CCCCCCn1ccnc1 [1-(7-carboxy-6-heptynyl)imidazole hydrochloride] | 4 |  | 
O=C(O)/C=C\CCCCCn1ccnc1 [(Z)-1-(7-carboxy-6-heptenyl)imidazole hydrochloride] |  | 0.2 | 
CC(CCCCCn1ccnc1)CC(=O)O.Cl (racemic) [1-[(6RS)-7-carboxy-6-methylheptyl]imidazole hydrochloride] | 0.53 | 0.13 | 
Cn1ccnc1 [1-methylimidazole] |  |  | inhibitory action for thromboxane synthetase (thromboxane synthetase [5]): weak
CC(C)(CCCCCCC(=O)O)n1ccnc1.Cl [1-(7-carboxy-1,1-dimethylheptyl)imidazole hydrochloride] | 0.18 | 0.071 | 
O=C(O)CCCC/C=C\Cn1ccnc1 [(Z)-1-(7-carboxy-2-heptenyl)imidazole hydrochloride] |  | 0.016 | 
CCCCC(CCCn1ccnc1)C(=O)OCC (racemic) [1-[(4RS)-4-ethoxycarbonyloctyl]imidazole] |  | 0.09 | 
c1c[nH]cn1 [imidazole] |  |  | inhibitory action for thromboxane synthetase (thromboxane synthetase [5]): weak
CC(CCCCCCn1ccnc1)C(=O)O.Cl (racemic) [1-[(7RS)-7-carboxyoctyl]imidazole hydrochloride] | 0.17 |  | LD50 (acute toxicity test): 540 mg/kg; inhibitory effect on arachidonic acid-induced sudden deaths [3]: inhibitory effect
CCOC(=O)C(C)(C)CCCCCCn1ccnc1 [1-(7-ethoxycarbonyl-7-methyloctyl)imidazole] | 0.44 (≈ 1.65 µM) | 0.03 | 
CCOC(=O)C(C)CCCCCCn1ccnc1 (racemic) [1-[(7RS)-7-ethoxycarbonyloctyl]imidazole] | 0.052 (≈ 0.206 µM) | 1 | 
